Assay results from patent publication US20130059859A1, “PREDICTIVE BIOMARKERS FOR PI3K/AKT KINASE PATHWAY INHIBITOR EFFICACY” (GENENTECH, INC., priority 2010, published 2013).

What was measured:
FOXO3a = FOXO3a immunofluorescence localization (cytoplasm-to-nucleus translocation) assay; type: cell-based
Method: Tissue culture cells are plated in 96 well culture plates in culture medium with 10% (full) serum. 24 hours later, cells are dosed with 1 uM of indicated drug for 6 hours at which point cells are directly fixed in 4% formaldehyde in protein-free phosphate-buffered saline (PBS) for 20 min at 37° C. Plates are washed and then cells permeabilized by a 10 min incubation in ice cold methanol. Plates are washed to remove methanol and incubated with anti-FOXO3a antibody (Cell Signaling Technology, catalog #2497, clone 75D8) in antibody dilution buffer (1% BSA, 0.3% Triton X-100 in PBS) at a 1:20 dilution of primary antibody, along with Hoechst nuclear stain (1:10,000 dilution). Cells are incubated overnight at 4° C. Plates are washed to remove primary antibody and then incubated with secondary antibody, goat anti-rabbit conjugated to Alexa-flour 488 dye (Invitrogen) for 1 hr at ambient temperature in the dark. Plates are washed with PBS, sealed with black plate sealer and analyzed on the Cellomics HCS ArrayScan Imager using the Cytoplasm-to-Nucleus translocation bioapplication (Thermo Scientific).

breast cancer cell lines = details: panel of breast cancer cell lines; Hoeflich et al 2009; cited from earlier work
[1] = system: PTEN null breast cancer cell lines; test: Cell line sensitivity to AKT inhibitor (IC50); type: cell-based
[2] = PI3K/AKT inhibitor resistant cell lines, FIG. 8
[3] = cell lines sensitive to PI3K/AKT inhibitors, FIG. 7
[4] = resistant lines with PI3K/AKT activation (MB-468 with PTEN loss), FIG. 8

O=C(NOC[C@H](O)CO)c1ccc(F)c(F)c1Nc1ccc(I)cc1F [PD901, reference compound]
FOXO3a localization upon treatment (FOXO3a; breast cancer cell lines, FIGS. 11A-C): unchanged | activity at the concentration used (breast cancer cell lines): active

CC(C)NC[C@@H](C(=O)N1CCN(c2ncnc3c2[C@H](C)C[C@H]3O)CC1)c1ccc(Cl)cc1 [GDC-0068, (S)-2-(4-chlorophenyl)-1-(4-((5R,7R)-7-hydroxy-5-methyl-6,7-dihydro-5H-cyclopenta[d]pyrimidin-4-yl)piperazin-1-yl)-3-(isopropylamino)propan-1-one]
FOXO3a localization post-treatment (FOXO3a; BT474 cells, FIG. 2B): translocated to the nucleus | FOXO3a localization upon treatment (FOXO3a; [2]): remains nuclear | FOXO3a localization upon treatment (FOXO3a; [3]): translocated from cytoplasm to nucleus | FOXO3a localization upon treatment (FOXO3a; [4]): more complete relocalization to nucleus | sensitivity of cell line to AKT inhibitor ([1]; MDA-MB-468, cell line with PTEN loss): resistant | IC50 ([1]; resistant cell lines with PTEN null status, FIG. 5): > 20 µM

CS(=O)(=O)N1CCN(Cc2cc3nc(-c4cccc5[nH]ncc45)nc(N4CCOCC4)c3s2)CC1 [GDC-0941, 2-(1H-Indazol-4-yl)-6-(4-methanesulfonyl-piperazin-1-ylmethyl)-4-morpholin-4-yl-thieno[3,2-d]pyrimidine]
FOXO3a localization upon treatment (FOXO3a; [2]): remains nuclear | FOXO3a localization upon treatment (FOXO3a; cell lines resistant to GDC-0941, FIG. 10B): remains nuclear | FOXO3a localization upon treatment (FOXO3a; cell lines sensitive to GDC-0941, FIG. 10A): relocalizes from cytoplasm to nucleus | FOXO3a localization upon treatment (FOXO3a; [3]): translocated from cytoplasm to nucleus | FOXO3a localization upon treatment (FOXO3a; [4]): more complete relocalization to nucleus
